Experiments:
[1] = tested on: MCF7, T47D, and Zr-75-1 cells; assay: BrdU incorporation (cell-cycle checkpoint) after CDDP treatment; assay type: cell-based, human
Experimental: The RB and p53 tumor suppressors are known to be critical for induction of DNA damage checkpoints, and therapies inducing DNA damage are used as an additional line of treatment for ER-positive breast cancers resistant to hormonal therapy. Therefore, the role of these tumor suppressors in the response to therapeutic doses of DNA-damaging agents is investigated. Wild-type MCF7, T47D, and Zr-75-1 cells are treated with 0, 8, or 16 μM CDDP and labeled with BRDU to determine the effect of the agent on cell-cycle progression. […] To specifically probe the impact of RB in the response to DNA damage, T47D and Zr-75-1 polyclonal donor and siRb88 cells are utilized. […] To confirm these findings, MCF7 donor 1 and siRb28 cells are treated with either CDDP as described above or with 0, 2.5, or 5 Gy ionizing radiation (IR). […] To determine the long-term effect of DNA damage therapy upon proliferation, cell growth assays are performed wherein the RB-proficient and deficient MCF7 clones are plated at equal density and treated with 2.5 or […].
(§1) RB target gene upregulation is a prognostic indicator in human breast cancers. RB performs a myriad of functions, the most well understood being repression of the E2F family of transcription factors. To determine the specific influence of the E2F axis on bypassing therapy, an activator E2F is overexpressed in wild-type MCF7 cells. Specifically, cells are infected either with an adenovirus encoding E2F3 (ad-E2F3) or a control virus (Ad-LacZ) and are harvested 3 days after infection for immunoblot analysis of levels of known RB-E2F targets (FIG. 5A). […] As expected, no changes are detected in RB levels, and CDK4 serves as a loading control. In order to assess the response to therapeutic intervention, 3 days after infection Ad-E2F3- or AdLacZ-infected MCF7 cells are separated into 2 major treatment groups: hormone therapy and DNA damage therapy. The estrogen ablation group is then cultured in the absence of estrogen and in the presence of Tam and ICI as described above. Alternatively, the cells in the DNA damage therapy group are treated with 16 μM CDDP for 18 hours prior to washing or treatment with 5 Gy IR. Cells from both therapy groups are BrdU labeled, and the replicative fraction of treated cells is determined with respect to untreated control cells (FIG. 5B).
The MCF7, T47D, and Zr-75-1 cell lines are obtained from ATCC and propagated in DMEM containing 10% FS supplemented with 100 U/ml penicillin/streptomycin and 2 mM L-glutamine at 37° C. in air containing 5% CO2. […] Cells are infected with Ad-lacZ at a multiplicity of infection of 50, at which 95% of cells are infected (as determined by plaque assay in 293 cells) or with 2.7×10^11 virus particles/ml of Ad-E2F3 and cultured for 3 days prior to use. […]

[2] = tested on: MCF7 donor or siRb xenograft tumors; assay: Nude mouse xenograft therapeutic study; assay type: in vivo, nude mice
Experimental: The xenograft model system is then utilized to test the response of RB-deficient tumors to CDDP therapy. Tumors are developed in the flanks of mice by injecting MCF7 donor or siRb cells into the flanks of mice and implanting a […] (E2) pellet into the back. When tumors reached 100-110 mm^3, mice received 5 mg/kg CDDP every 4 days for 5 courses.
To assess the role of RB in the therapeutic response of MCF7 cells in vivo, the xenograft model is again employed. Upon the attainment of tumors of approximately 100-120 mm^3, mice are deprived of estrogen and treated with Tam. […] (FIG. 4F). […] All tumors are weighed upon exclusion, and RB-deficient tumors are more than 3 times heavier than control tumors following Tam therapy (FIG. 4G).
Five- to 8-week-old female ovariectomized athymic nude mice are anesthetized, and an E2 pellet (1.7 mg/pellet, 90-day release) or placebo is surgically implanted in the back. Following implantation, 200 μl of a PBS- and phenol red-free Matrigel matrix basement membrane, solution (3:1) containing 2×10^6 cells is injected subcutaneously into the flank, or contralaterally where noted. Tumor volume is measured with calipers every 4 days using the equation V=0.52 (width)^2 ×(length). In the therapeutic studies, when tumor volume reaches 100-120 mm^3, animals are placed into 1 of 3 therapeutic groups (each group containing at least 6 animals): control animals retaining the estrogen pellet, antiestrogen-treated animals, or CDDP-treated animals. Animals in the antiestrogen treatment group are anesthetized, the estrogen pellet is surgically removed, and a Tam pellet (5 mg/pellet, 60-day release) implanted. The CDDP-treated animals receive 5 mg/kg CDDP injected i.p. on a q4dx5 schedule (every 4 days for 5 courses). All animals are injected i.p. with 150 mg/kg BrdU (Sigma-Aldrich) 1 hour prior to euthanization. Xenograft tumors are weighed and fixed in 10% neutral buffered formalin, paraffin embedded, and cut into 5-ÿm sections. For immunohistochemical staining, sections are deparaffinized in xylene and rehydrated through a graded series of ethanol/water solutions. A BrdU detection kit is utilized as recommended by the manufacturer. BrdU incorporation is scored in a blinded manner, and at least 500 cells per section are counted from several random fields.

[3] = tested on: MCF7, T47D, and Zr-75-1 cells; assay: BrdU incorporation under hormone deprivation / antiestrogen (CDT, CDT/Tam, CDT/ICI); assay type: cell-based, human
Experimental: To understand the impact of RB deficiency on the response to hormone deprivation therapy, cells are cultured in CDT, CDT/Tam, or in the presence of pure antiestrogen, ICI182780 (CDT/ICI). Following treatment with these modalities, cells are labeled with BrdU to determine the influence of each agent on cell-cycle progression and the corresponding influence of RB knockdown on this response (FIG. 4B). These experiments are recapitulated in the polyclonal populations of T47D and Zr-75-1 donor and siRb88 cells (FIG. 4C). […] To elucidate the long-term growth effects of these therapies, cell proliferation assays are performed over 9 days. RB-proficient and -deficient MCF7 cells are seeded at equal densities and cultured in CDT/Tam (FIG. 4D). […] Similar results are evident in the same experiments with both T47D and Zr-75-1 RB-proficient and -deficient polyclonal pools (FIG. 4E).
as §1
To study the effect of estrogen depletion, cells are cultured for 72 hours in phenol red-free DMEM supplemented with 10% CDT serum with addition of 10^−9 M 4-HydroxyTam or 10^−6 M ICI where indicated. Cell growth assays are performed by trypsinizing cells and counting by trypan blue exclusion every 3 days.
Cells treated with IR are exposed to ^137Cs (dose rate: 0.67 Gy/min) at room temperature in tissue culture media. Culture with clinical grade CDDP for 18 hours is performed for all CDDP treatments. For all proliferation studies, cells are labeled with BrdU for 10 hours or 5 hours for LXSN/LXSN-p53dd infected cells, and BrdU immunofluorescence is performed as previously described. All BrdU results are expressed as a percentage of untreated control cells set to 100%, unless otherwise noted.

SMILES | cell-cycle arrest (replicative fraction, BrdU) ([1]; Ad-E2F3-infected versus control infected MCF7 cells, 16 μM CDDP for 18 hours) | DNA damage checkpoint (BrdU labeling) ([1]; MCF7 siRb28 versus donor 1 cells, CDDP 0, 8, or 16 μM) | BrdU incorporation following DNA damage ([1]; RB-deficient (siRb88) T47D and Zr-75-1 cells, 0, 8, or 16 μM CDDP) | effect on cell-cycle progression (BrdU labeling) ([1]; wild-type RB-positive MCF7, T47D, Zr-75-1 cells, 0, 8, or 16 μM CDDP for 18 hours, BrdU 10 hours) | tumor response during treatment, RB-deficient tumors ([2]; RB-deficient MCF7 tumors versus control tumors, 5 mg/kg CDDP every 4 days for 5 courses) | tumor response during treatment ([2]; RB-proficient and RB-deficient MCF7 tumors, 5 mg/kg CDDP i.p. every 4 days for 5 courses) | tumor weight upon excision, tumors lacking RB relative to control tumors ([2]; following CDDP therapy) | cell-cycle arrest (replicative fraction, BrdU) ([3]; Ad-E2F3-infected versus control infected MCF7 cells, absence of estrogen plus agent) | cell-cycle inhibition by the agent (BrdU labeling) ([3]; RB-depleted cells (MCF7 siRb28, T47D and Zr-75-1 siRb88), CDT serum plus agent, 3 days) | cell-cycle progression (BrdU labeling) ([3]; cells harboring functional RB (MCF7, T47D, Zr-75-1 donor), CDT serum plus agent, 3 days, 10^−9 M 4-HydroxyTam or 10^−6 M ICI)
N.N.[Cl][Pt][Cl] [CDDP, cis-diamminedichloroplatinum II] | significantly reduced levels of cell-cycle arrest | RB deficiency promotes bypass of the DNA damage checkpoints | continue to incorporate BrdU efficiently | dose-dependent cell-cycle checkpoint | regressed more rapidly | both tumor types regressed | less than half as much as control tumors |  |  | 
C[C@]12CC[C@@H]3c4ccc(O)cc4C[C@@H](CCCCCCCCC[S+]([O-])CCCC(F)(F)C(F)(F)F)[C@H]3[C@@H]1CC[C@@H]2O (stereo partly shown) [ICI182780] |  |  |  |  |  |  |  | significantly reduced levels of cell-cycle arrest | significantly reduced | elicit cell-cycle inhibition

From patent US8470534B2, “Methods of predicting resistance or sensitivity to therapies for cancer” (priority 2006, dated 2013)
